Tests used:
Format in all cases: in vivo, human
[1] = Salivary acetaldehyde during smoking with L-cysteine sucking tablets, gas chromatography (Example 7); details: for average salivary acetaldehyde content immediately after smoking: 5 min smoking
Procedure: Five smokers (of the age of 29±2.8) participated in the study, in which three cigarettes were smoked (with cleaning periods in between). While smoking each cigarette (in 5 minutes time), the voluntaries sucked tablets blindfold, containing a placebo, 1.25 mg, 2.5 mg, 5 mg, 10 mg or 20 mg of L-cysteine. The acetaldehyde in the saliva samples was analysed by gas chromatography after 0, 5, 10, 20 minutes from starting to smoke.

[2] = Salivary acetaldehyde during smoking while sucking the Example 1 tablet (Example 6); details: sucking tablet with 20 mg cysteine, one cigarette, after the first 5 minutes, two testees
Procedure: Two individuals tested the preparation prepared according to Example 1. The salivary acetaldehyde contents of the testees were measured before smoking and then after 5 minutes during smoking, i.e., 0 min, 5 min, 10 min, and 15 min after the testees started smoking. Each testee smoked one cigarette and, at the same time, saliva was collected from their mouths, as they sucked placebo tablets. Smoking lasted for 5 min. In another test, the testees repeated the study by sucking tablets containing 20 mg of cysteine.

[3] = Moistened cysteine filter in cigarette holder, salivary acetaldehyde during smoking (Example 9); details: filter and cysteine in solid form (not moistened)
From the text: The entire filter of Marlboro Red was removed or, in some tests, a 2-3 mm piece of the original filter was left in the cigarette.
In the tests, the ready commercial cigarette holders/mouthpieces of Denicotea, www.denicotea.de, were used. In the cigarette holders/mouthpieces, plastic cylinder-shaped “containers” were used, in which the filter material was packed. The original content (intended for the removal of nicotine) of the containers was removed and replaced with the material that was used in the study. The outer dimensions of the container were: diameter 8 mm and length 35 mm.
Cellulose wadding (c. 100 mg), filter paper (Whattman),
Cysteine was dissolved in distilled water, 30-180 mg of L-Cysteine/1 ml. The manufacturer: Fluka, 30089.
[…] After this, the testees smoked the cigarettes that had been placed in the mouthpieces. During smoking, saliva samples were collected from those participating in the tests and the acetaldehyde in the saliva was analyzed by gas chromatography, Perkin-Elmer, HS40, headspace Gas Chromatograph.

[4] = Salivary acetaldehyde after alcohol with slow-release buccal tablet (Example 10); details: buccal tablet 100 mg, alcohol 0.8 g/kg, every 20 min up to 320 min, FIG. 10
Procedure: The testees enjoyed alcohol in amounts of 0.8 g per kilo of body weight. Thereafter, the testees attached, under their upper lip, a buccal tablet that contained 100 mg of N-acetyl cysteine and that slowly released the acetyl cysteine. The salivary acetaldehyde levels were measured at intervals of 20 minutes up to 320 minutes. Throughout, the acetaldehyde contents of those using the acetyl cysteine tablets were lower than of those using the placebo.

| Structure (SMILES) | reduction of amount of acetaldehyde compared with placebo ([1]; 1.25 mg tablet) | average salivary acetaldehyde content immediately after smoking ([1]; 5 mg L-cysteine sucking tablet) | inactivation of carcinogenic acetaldehyde in saliva during smoking ([1]; 5 mg, delivered with a melting tablet) | average salivary acetaldehyde content immediately after smoking ([1]; 10 mg L-cysteine sucking tablet) | average salivary acetaldehyde content immediately after smoking ([1]; 20 mg L-cysteine sucking tablet) | removal from saliva of acetaldehyde originating from tobacco ([1]; tablets of 5 mg, 10 and 20 mg, FIG. 4) | salivary acetaldehyde content [2] | filtering of acetaldehyde [3] | salivary acetaldehyde contents compared with placebo [4] |
| --- | --- | --- | --- | --- | --- | --- | --- | --- | --- |
| N[C@@H](CS)C(=O)O [L-cysteine] | about two thirds | 0 µM | completely inactivated | 0 µM | 0 µM | all of the acetaldehyde | non-measurable level | do not filter the acetaldehyde | – |
| CC(=O)N[C@@H](CS)C(=O)O [N-acetyl cysteine] | – | – | – | – | – | – | – | – | lower |

Source: patent US20110033560A1, “PREPARATION AND A COMPONENT INTENDED TO BE ADDED TO A TOBACCO PRODUCT” (BIOHIT OYJ, priority 2007, published 2011)
